The source of these data is paper PMC11396062, “The n-Butanol Extract Obtained from the Inner Bark of Tabebuia rosea (Bertol.) DC, Specioside, and Catalposide Induce Leukemia Cell Apoptosis in the Presence of Apicidin” (Molecules, 2024).

Assay [1] deals with Hep-G2 cells. Also on record: method as in PMID 21678519. The conditions noted are these: cited from earlier work.
Assay [2] has as its system THP-1 cells. Nature of the assay: MTT cell viability assay, THP-1 cells. The class given is cell-based, human. Conditions: for IC50: MTT, n = 3. Here is the method:
Jurkat and THP-1 cell lines were purchased from the American Type Culture Collection (ATCC, Rockville, MD, USA); Jurkat is a human lymphocytic cell line representing acute T-cell leukemia, and THP-1 is a monocytic cell line that represents acute myelogenous leukemia (AML). […] Cat Nos. […] The cells were maintained at 37 °C in a humidified atmosphere with 5% CO2. The culture medium was exchanged with fresh medium every 2-3 days. Peripheral blood mononuclear cells (PBMCs) were isolated from normal human venous blood. Further, 10 milliliters of human blood was mixed with 10 mL of RPMI-1640 containing 50 μL of heparin and gradually poured over 1 mL of HISTOPAQUE®-1119 (Sigma). The plasma was removed by centrifugation at 3000 rpm for 30 min. The peripheral blood mononuclear cell-containing layer was collected with a pipette and diluted in 4 mL of PBS. PBMCs were harvested by centrifugation at 1500 rpm for 10 min at room temperature, resuspended in RPMI-1640 with 10% FBS, and incubated at 37 °C in 5% CO2 humidified air. […] Doxorubicin was used as a reference standard drug (positive control). After treatment, the medium was discarded; 200 μL of RPMI 1640 medium without phenol red containing 0.5 mg/mL MTT (Sigma Chemical Co., Saint Louis, MO, USA; Cat. No. […] The plates were incubated for four hours at 37 °C with 5% CO2 in a humidified atmosphere. The medium was discarded, and 100 μL of DMSO was added to solubilize the formazan crystals. The absorbance was measured with an ELISA microplate reader at 492 nm (ELx800; BioTek Instruments Inc., Winooski, VT, USA). The percentage of viable cells was calculated on the basis of the nontreated control (taken as 100%). […] Three independent assays were performed, each in triplicate. The selectivity index corresponds to the ratio of the IC50 value calculated for the activity of synthesized compounds on a regular cell line (PBMCs) to that of the IC50 calculated for cancer cell lines (Jurkat and THP-1). Values greater than two were optimal for an efficient selectivity index.
In general terms: Tetrazolium assays rely on reduction of a dye to a coloured formazan, in cell work by metabolically active cells.

Assay [3] has as its system BCL2. Kind of assay: RT-qPCR BCL2 mRNA expression. Format: cell-based, human. The conditions noted are these: THP-1, catalposide 44 μg/mL, specioside 40 μg/mL. How it is done: After treatment, mRNA extraction was performed using the RNeasy Plus Mini Kit (Qiagen, Germantown, MD, USA; Cat No. 74134). The mRNA was quantified with a NanoDrop 2000c (Thermo Fisher Scientific, Waltham, MA, USA). The expression of the MAPK14 (gene encoding p38), BCL2, and BAX genes was evaluated by qRT–PCR and quantified with the 2^−ΔΔCt method in the Applied Biosystems StepOnePlus Real-Time PCR System (Applied Biosystems, Foster City, CA, USA), which uses predesigned TaqMan Gene Expression Assays (codes […], Hs00608023_m1, and Hs00180269_m1, respectively) (Applied Biosystems, Foster City, CA, USA) and the TaqMan® RNA-to-CT TM 1-Step Kit (Applied Biosystems, Foster City, CA, USA, Cat No. 4392653). The reaction mixture was incubated at 48 °C for 15 min and 95 °C for 10 min and then cycled (40 cycles) at 95 °C for 15 s and 60 °C for 1 min. GAPDH was used as an endogenous control.
(In general: In qPCR the cycle at which signal appears reflects the starting amount.)

[4] abbreviates: Homo sapiens, THP-1, 12 h, read-out: IC50.
Where [5] appears, read: Homo sapiens, THP-1, 24 h, read-out: IC50.
Setting [6] is: Homo sapiens, THP-1, 48 h, read-out: IC50.

Values after ≈ are worked out from the molar mass of the structure shown. Like-named read-outs stand apart in the source and are kept apart here.

Take `O=C(O[C@H]1[C@@H]2C=CO[C@@H](O[C@@H]3O[C@H](CO)[C@@H](O)[C@H](O)[C@H]3O)[C@@H]2[C@@]2(CO)O[C@@H]12)c1ccc(O)cc1` [Catalposide, catalposide]: the “effect in Hep-G2 cells” value in assay [1] is “only had cytotoxic and cytostatic effects”. Further, the IC50 (usually the concentration that gives 50% inhibition) is 122 ± 3.3 µg/mL (≈ 252 µM) in assay [2] (setting [4]); 43.9 µg/mL (≈ 91 µM) in assay [2] (setting [5]); 30.2 ± 1.67 µg/mL (≈ 62.5 µM) in assay [2] (setting [6]); 43.86 ± 2.2 µg/mL (≈ 90.9 µM) in assay [2] (THP-1, 24 h). The “SI (selectivity index)” value in assay [2] (IC50 PBMC / IC50 THP-1, 12 h) came to 1.03; in assay [2] (IC50 PBMC / IC50 THP-1, 24 h), 1.99; in assay [2] (IC50 PBMC / IC50 THP-1, 48 h), 1.44. In assay [3], the “expression of Bcl-2 mRNA with APC” value is “decreased”.
As for `O=C(/C=C/c1ccc(O)cc1)O[C@H]1[C@@H]2C=CO[C@@H](O[C@@H]3O[C@H](CO)[C@@H](O)[C@H](O)[C@H]3O)[C@@H]2[C@@]2(CO)O[C@@H]12` [Specioside], the IC50 was 47.2 ± 2.3 µg/mL (≈ 92.9 µM) in assay [2] (setting [4]); 40.3 µg/mL (≈ 79.3 µM) in assay [2] (setting [5]); 26.3 ± 6.8 µg/mL (≈ 51.8 µM) in assay [2] (setting [6]); 40.32 ± 1.3 µg/mL (≈ 79.3 µM) in assay [2] (THP-1, 24 h). In addition, the “SI (selectivity index)” value came out at 3.49 in assay [2] (IC50 PBMC / IC50 THP-1, 12 h); 1.75 in assay [2] (IC50 PBMC / IC50 THP-1, 24 h); 2.06 in assay [2] (IC50 PBMC / IC50 THP-1, 48 h). In assay [3], the “expression of Bcl-2 mRNA with APC” value is given as “decreased”.
